One data set deals with Ndrg1. The data set can be described thus: mRNA expression (Real-Time PCR) of Ndrg1. The format is cell-based, human. The conditions noted are these: HCT116, TSC 1 µM, 12 h. How it is done:
(§1) The HCT116 cells were seeded in 3 cm Petri dishes (Nunc) at a density of 0.5·10^6 cells/well and incubated overnight. Next, the medium was removed and solutions of TSC (1 μM) and DOX (5 μM) were added. After 12 or 24 h, total RNA was isolated from the cells using TRIzol Reagent (Ambion) according to the manufacturer’s instructions. cDNA synthesis was performed with 5 μg of total RNA using a GoScript™ Reverse Transcriptase kit (Promega) and Oligo(dT)23 Primers (Sigma). The Real-Time PCR was performed with a CTX96 Touch™ Real-Time PCR Detection System (Biorad) in a 20 μL reaction volume. The reaction consisted of PowerUp™ SYBR® Green Master Mix (Applied Biosystems), a primer pair mix (0.5 μM each) and 1 μL of cDNA. All primer pair sequences were purchased from Sigma-Aldrich and are listed in Supplementary Table 2. The experiment was performed under the following conditions: initial denaturation at 95° C for 120 sec; followed by 40 denaturation cycles at 95° C, 15 sec; annealing (primer-specific temperature for 30 sec) and extension at 72° C for 60 sec. Data was analyzed based on a comparison of the expression of the target genes to a reference gene – β-actin, using the 2^–ΔΔCT method. The experiments were performed at least three times.
Background: Real-time PCR tracks product formation cycle by cycle.

The next data set deals with calf-thymus DNA (CT-DNA). The data set can be described thus: Intercalation, absorption spectra with CT-DNA. The format is binding. The procedure, abridged: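 Compounds (25, 12.5, 6 and 3 µM, from DMSO stock) incubated with 18 µM CT-DNA in 10 mM Tris-HCl pH 7.9 for 1.5 h at 37 °C. UV-vis absorption spectra recorded over 200–500 nm; CT-DNA concentration set from A260 using ε 6600 M^–1cm^–1.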

The next data set concerns MCF-7. The data set can be described thus: MTS antiproliferative assay, MCF-7 (with or without added metal ions). The format is cell-based, human. The procedure, abridged: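 Cells seeded at 3,500/well, left 24 h at 37°C, then exposed to compounds for 96 h, optionally with 20 µM CuSO4, FeSO4 or FeCl3 added. Viability by MTS absorbance at 490 nm after 1 h; IC50 taken as concentration reducing proliferation to 50% of untreated control.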
A general note: Formazan colour is commonly taken as a measure of viable cells.

A further data set has as its system CAT. In words: mRNA expression (Real-Time PCR) of CAT. It counts as cell-based, human. To be noted: HCT116, TSC 1 µM, after the first 12 h. How it is done: as §1

Like-named read-outs stand apart in the source and are kept apart here.

Usually IC50 stands for the midpoint of a concentration-inhibition curve. For the molecule `S=C(NN=C(c1ccccn1)c1ccccn1)N1CCN(c2ccccc2)CC1` [Compound 3a], the “mRNA expression of Ndrg1” value in the data set on Ndrg1 is “significant increase”. Besides, in the data set on calf-thymus DNA (CT-DNA) (bound to CT-DNA), the “% hypochromism” value is 28.2%, the Changes in absorbance result is on record as “hypochromism” and the Δε came to 4120.0 M⁻¹ cm⁻¹. In addition, the blue/red shift with calf-thymus DNA (CT-DNA) (wavelengths of maximum absorption, compound alone vs DNA-bound) was 5 nm. In addition, the concentration for half-maximal inhibition (IC50) in the data set with MCF-7 (96 h, 20 µM CuSO4 added, read-out: Activity - IC50 MCF-7+ Cu^2+) is 1.55 ± 0.55 nM. Moreover, in the data set on MCF-7 (96 h, 20 µM FeCl3 added, read-out: Activity - IC50 MCF-7+ Fe^3+), the IC50 worked out at 8.96 ± 1.81 nM. In addition, the IC50 with MCF-7 (96 h incubation, MTS, read-out: Activity - IC50 MCF-7) was 12 ± 2.04 nM. Besides, the “improvement in cytotoxicity after interacting with Cu^2+” value with MCF-7 (MCF-7 cells, 20 µM CuSO4) is given as “eight-fold”. Moreover, the “mRNA expression of CAT” value in the data set with CAT is given as “higher”.
